In patent publication US20050074834A1 (priority 2001, published 2005):
“Also recorded” adds a separate entry of the source. No end group written: not given here.

How the values were obtained:
[1] = system: chromatophores
[2] = system: fish chromatophores; format: cell-based
[3] = system: chromatophores; assay: cells; conditions: read-out: Threshold concentration PPM
[4] = system: erythrophores; format: cell-based
[5] = system: Betta splendens erythrophores; format: cell-based
[6] = system: melanophores; format: cell-based

In the case of “Substance P (RPKPQQFFGLM; ends and bridges not checked; UniProt P20366 58-68, looked up)”, the “Chromatophore response (cell spans the chromatophore type columns)” value [1] was “Hue changes (FS)”.
For `O=S(=O)(NCCNC/C=C/c1ccc(Br)cc1)c1cccc2cnccc12` [H89], the “chromatophore response in the absence of forskolin” value [2] was “aggregate; also recorded: aggregation” and the “chromatophore response in the presence of forskolin” value [2] was “continues to be responsive; also recorded: still results in cell aggregation”.
With `O=C(O)c1ccccc1O` [Salicylate] the “Chromatophore response (cell spans the chromatophore type columns)” value [1] was “Imp. (FS)” and the “Threshold concentration PPM” value [1] was “XX (key: X=1 to 100 PPM; XX=100 to 1000 PPM)”.
Work on `CN(C)CCC(c1ccccc1)c1ccccn1` (stereo not shown) [Pheniramine] yielded a minimal effective concentration [3] of 100 to 1000 µg/mL.
`c1ccc2c(c1)-c1cccc3cccc-2c13` [Fluoranthene] was tested, and the minimal effective concentration [3] was 1 to 100 µg/mL.
`[Cu]` [Cu] was tested, and the “Chromatophore response (cell spans the chromatophore type columns)” value [1] was “Imp. (FS)” and the “Threshold concentration PPT” value [1] was “X (key: X=1 PPT or higher)”.
For `c1ccc2cc3c(ccc4ccccc43)cc2c1` [1,2-Benzanthracene], the “Threshold concentration PPM” value [1] was “X (key: X=1 to 100 PPM; XX=100 to 1000 PPM)” and the “Chromatophore response Erythrophores” value [4] was “Imp”.
`COc1ccc(CCN(C)CCCC(C#N)(c2ccc(OC)c(OC)c2)C(C)C)cc1OC` (stereo not shown) [Verapamil] was tested, and the “Threshold concentration PPB” value [1] was “X (key: X=1 to 100 PPB; XX=100 to 1000 PPB)”, the “Morphology Effect: Aggregation” value [5] was “No” and the “Morphology Effect: Dispersion” value [5] was “Yes”. For the same molecule, the “erythrophore pigment dispersion response, control” value [5] was “failed to induce pigment dispersion response”, the “erythrophore pigment response after norepinephrine pre-treatment” value [5] was “produces pigment dispersion” and the “erythrophore response to verapamil” value [5] was “rapid dispersion; also recorded: disperse almost as completely as possible; also recorded: pigment dispersion; also recorded: larger dispersion”.
For `[Pb]` [Pb], the “Chromatophore response (cell spans the chromatophore type columns)” value [1] was “Imp. (FS)” and the “Threshold concentration PPT” value [1] was “X (key: X=1 PPT or higher)”.
In the case of `C=C1[C@@H](C)[C@H]2[C@H](Cc3ccccc3)NC(=O)[C@]23[C@H](OC(C)=O)/C=C/[C@@](C)(O)C(=O)[C@@H](C)C/C=C/[C@H]3[C@@H]1O` [Cytochalasin D], the “Threshold concentration PPM” value [1] was “XX (key: X=1 to 100 PPM; XX=100 to 1000 PPM)” and the “Chromatophore response Melanophores” value [6] was “Imp”.
In the case of `CCOC(=O)c1cccc(N)c1` [Tricaine], the “Threshold concentration PPM” value [1] was “X (key: X=1 to 100 PPM; XX=100 to 1000 PPM)” and the “Chromatophore response Melanophores” value [6] was “Disp”.
Molecule `CC(=O)OCC[N+](C)(C)C` [Acetylcholine] has a minimal effective concentration [3] of 1 to 100 µg/mL.
For `C[C@H](CCC(=O)O)C[C@H](C)C[C@H](C)C(=O)/C=C(\O)[C@H](C)C[C@H](C)C/C=C/[C@@H](C)[C@@H](O)[C@@H](C)[C@@H](O)C[C@@H]1CC[C@@](C)([C@H]2CC[C@@](C)([C@@H](C)O)O2)O1` [Ionomycin], the “Morphology Effect: Aggregation” value [5] was “Yes”, the “Morphology Effect: Dispersion” value [5] was “No” and the “erythrophore pigment response on addition” value [5] was “slight, but sustained aggregation”.
`NCCc1c[nH]c2ccc(O)cc12` [Serotonin] was tested, and the “Chromatophore response (cell spans the chromatophore type columns)” value [1] was “Partial Aggr” and the minimal effective concentration [3] was 1 to 100 µg/mL.
In the case of `COC(=O)[C@@H]1[C@H]2C[C@H]3c4[nH]c5ccccc5c4CCN3C[C@@H]2CC[C@@H]1O` [Yohimbine], the “Chromatophore response (cell spans the chromatophore type columns)” value [1] was “Blocks norepinephrine”.
`COc1cc(CNC(=O)CCCC/C=C/C(C)C)ccc1O` [Capsaicin] was tested, and the minimal effective concentration [3] was 1 to 100 µg/mL and the “Chromatophore response Melanophores” value [6] was “Hollow-”.
In the case of `c1cc2c3c(cccc3c1)CC2` [Acenapthene], the “Threshold concentration PPM” value [1] was “X (key: X=1 to 100 PPM; XX=100 to 1000 PPM)” and the “Chromatophore response Erythrophores” value [4] was “Imp”.
`C=CC[C@@H](CC/C(C)=C/C=C/CC/C=C\[C@@H]1CSC([C@@H]2C[C@@H]2C)=N1)OC` [Curacin A] was tested, and the “Chromatophore response (cell spans the chromatophore type columns)” value [1] was “Aggr. and Imp. (FS)”, the “Response time Hr.” value [1] was “X (key: X=1-6 hr; XX=6-24 hr)” and the “Threshold concentration PPM” value [1] was “X (key: X=1 to 100 PPM; XX=100 to 1000 PPM)”.
`c1cc2ccc3cccc4ccc(c1)c2c34` [Pyrene] showed a minimal effective concentration [3] of 1 to 100 µg/mL.
In the case of `CNCCNS(=O)(=O)c1cccc2cnccc12` [Protein kinase inhibitor H-8], the “Threshold concentration PPM” value [1] was “XX (key: X=1 to 100 PPM; XX=100 to 1000 PPM)” and the “Chromatophore response Melanophores” value [6] was “Disp”.
`NCCc1c[nH]cn1` [Histamine] gave a minimal effective concentration [3] of 100 to 1000 µg/mL.
`CNc1ccc2oc(C[C@H]3O[C@@]4(CC[C@H]3C)O[C@H]([C@H](C)C(=O)c3ccc[nH]3)[C@H](C)C[C@H]4C)nc2c1C(=O)O` [A23187] was tested, and the “Morphology Effect: Aggregation” value [5] was “No” and the “Morphology Effect: Dispersion” value [5] was “No”.
With `OO` [Hydrogen peroxide] the “Chromatophore response (cell spans the chromatophore type columns)” value [1] was “Imp. (FS)” and the minimal effective concentration [3] was 100 to 1000 µg/mL.
For `[Ni]` [Ni], the “Chromatophore response (cell spans the chromatophore type columns)” value [1] was “Imp. (FS)” and the “Threshold concentration PPT” value [1] was “X (key: X=1 PPT or higher)”.
In the case of `CC(=O)OCOC(=O)CN(CC(=O)OCOC(C)=O)c1ccccc1OCCOc1ccccc1N(CC(=O)OCOC(C)=O)CC(=O)OCOC(C)=O` [BAPTA/AM], the “Morphology Effect: Aggregation” value [5] was “No”, the “Morphology Effect: Dispersion” value [5] was “Yes” and the “erythrophore pigment response on addition” value [5] was “pigment dispersion”.
`COC(=O)[C@@]1(O)C[C@H]2O[C@]1(C)n1c3ccccc3c3c4c(c5c6ccccc6n2c5c31)C(=O)NC4` [Protein kinase inhibitor K252a] was tested, and the minimal effective concentration [3] was 1 to 100 µg/mL.
MCH was tested, and the “Threshold concentration PPB” value [1] was “X (key: X=1 to 100 PPB; XX=100 to 1000 PPB)” and the “Chromatophore response Melanophores” value [6] was “Aggr”.
For `Cc1ccc(N(CC2=NCCN2)c2cccc(O)c2)cc1` [Phentolamine], the “Chromatophore response (cell spans the chromatophore type columns)” value [1] was “Blocks norepinephrine”.
In the case of `CNCCCN1c2ccccc2CCc2ccccc21` [Desipramine], the “Chromatophore response (cell spans the chromatophore type columns)” value [1] was “Aggr. (FS)” and the minimal effective concentration [3] was 1 to 100 µg/mL.
For `NCCc1ccc(O)c(O)c1` [Dopamine], the “Chromatophore response (cell spans the chromatophore type columns)” value [1] was “Aggr. (FS)” and the minimal effective concentration [3] was 100 to 1000 µg/mL.
For `c1ccc(C2CC2)c(OCC2=NCCN2)c1` [cirazoline], the “chromatophore response after forskolin and PMSF” value [2] was “no aggregation occurred”, the “chromatophore response in the absence of forskolin” value [2] was “aggregate; also recorded: aggregation” and the “chromatophore response in the presence of forskolin” value [2] was “unresponsive; also recorded: not detectable”.
With `CCOP(=S)(Oc1ccc([N+](=O)[O-])cc1)c1ccccc1` (stereo not shown) [EPN] the “Response time Hr.” value [1] was “X (key: X=1-6 hr; XX=6-24 hr)” and the “Threshold concentration PPM” value [1] was “XX (key: X=1 to 100 PPM; XX=100 to 1000 PPM)”.
In the case of `NCCNS(=O)(=O)c1cccc2cnccc12` [Protein kinase inhibitor H-9], the “Threshold concentration PPM” value [1] was “XX (key: X=1 to 100 PPM; XX=100 to 1000 PPM)” and the “Chromatophore response Melanophores” value [6] was “Disp”.
In the case of `COc1cc2c(c(OC)c1OC)-c1ccc(OC)c(=O)cc1[C@@H](NC(C)=O)CC2` [Colchicine], the minimal effective concentration [3] was 100 to 1000 µg/mL.
`C=O` [Formaldehyde] was tested, and the minimal effective concentration [3] was 100 to 1000 µg/mL.
For `O=S(=O)(F)Cc1ccccc1` [PMSF, phenylmethylsulfonyl fluoride], the “Chromatophore response (cell spans the chromatophore type columns)” value [1] was “Imp. (FS)”, the “Threshold concentration PPM” value [1] was “X (key: X=1 to 100 PPM; XX=100 to 1000 PPM)” and the “effect of PMSF on sensitivity to H89” value [2] was “heightens the sensitivity of cells to H89; also recorded: increased sensitivity to H89 inhibition”.
In the case of `CC(COc1ccccc1)N(CCCl)Cc1ccccc1` (stereo not shown) [Phenoxy-benzamine], the “Chromatophore response (cell spans the chromatophore type columns)” value [1] was “Blocks norepinephrine”.
For `C=C(C=O)C[C@@H]1C[C@H](O)[C@]2(C)O[C@@H]3C[C@@H]4O[C@@H]5C[C@]6(C)O[C@]7(C)CC[C@@H]8O[C@@H]9C[C@]%10(C)O[C@@H]%11C(C)=CC(=O)O[C@H]%11C[C@H]%10O[C@H]9C[C@@H](C)[C@H]8O[C@H]7C[C@H]6O[C@H]5C/C=C\[C@H]4O[C@H]3C[C@H]2O1` [Brevetoxin], the “Chromatophore response (cell spans the chromatophore type columns)” value [1] was “Aggr. (FS)”, the “Response time Hr.” value [1] was “X (key: X=1-6 hr; XX=6-24 hr)” and the “Threshold concentration PPM” value [1] was “X (key: X=1 to 100 PPM; XX=100 to 1000 PPM)”.
`Nc1ncnc2c1ncn2[C@@H]1O[C@H](CO)[C@@H](O)[C@H]1O` [Adenosine] was tested, and the “Chromatophore response (cell spans the chromatophore type columns)” value [1] was “Disp” and the minimal effective concentration [3] was 100 to 1000 µg/mL.
For `C/C=C(/C)C(=O)O[C@H]1C(C)=C2[C@H]([C@@H]1OC(=O)CCCCCCC)[C@@](C)(OC(C)=O)C[C@H](OC(=O)CCC)[C@@]1(O)[C@H]2OC(=O)[C@@]1(C)O` [Thapsigargin], the “Morphology Effect: Aggregation” value [5] was “Yes” and the “Morphology Effect: Dispersion” value [5] was “No”.
For `CC(N)Cc1ccccc1` (stereo not shown) [Amphetamine], the “Chromatophore response (cell spans the chromatophore type columns)” value [1] was “Aggr. (FS)” and the minimal effective concentration [3] was 1 to 100 µg/mL.
`N` [Ammonium] was tested, and the “Chromatophore response (cell spans the chromatophore type columns)” value [1] was “Imp. (FS)” and the “Threshold concentration PPM” value [1] was “XX (key: X=1 to 100 PPM; XX=100 to 1000 PPM)”.
With μ-Conotoxin GVIA the “Morphology Effect: Aggregation” value [5] was “No” and the “Morphology Effect: Dispersion” value [5] was “No”.
In the case of `COC(=O)C1=C(C)NC(C)=C([N+](=O)[O-])C1c1ccccc1C(F)(F)F` (stereo not shown) [Bay K8644], the “erythrophore pigment response on direct application” value [5] was “neither the aggregation nor dispersion of erythrophore pigment”.
In the case of `[Ag]` [Ag], the “Chromatophore response (cell spans the chromatophore type columns)” value [1] was “Imp. (FS)” and the “Threshold concentration PPT” value [1] was “X (key: X=1 PPT or higher)”.
With `CCCCCCC(C)(C)c1ccc([C@@H]2C[C@H](O)CC[C@H]2CCCO)c(O)c1` [Cannabinoid CP-55940, CP-55940] the “Chromatophore response (cell spans the chromatophore type columns)” value [1] was “Disp. (FS)”.
